Laboratory results taken from PMC5218480 (PLoS ONE, 2017).

Tested on: MV-4-11 cells
Test: Gene expression microarray analysis (Affymetrix PrimeView) and GSEA
Assay type: cell-based, human
Parameters: RFU PODN (11730768_x_at) / Fold change /veh PODN (11730768_x_at) / RFU LINC00158 (11744669_a_at) / Fold change /veh LINC00158 (11744669_a_at) / RFU DUSP10 (11751237_a_at) / Fold change /veh DUSP10 (11751237_a_at) / RFU ID3 (11757404_x_at) / Fold change /veh ID3 (11757404_x_at) / RFU PLEKHG5 (11737974_s_at) / Fold change /veh PLEKHG5 (11737974_s_at) / RFU LRRC4B (11730491_at) / Fold change /veh LRRC4B (11730491_at) / RFU GIMAP4 (11747438_a_at) / Fold change /veh GIMAP4 (11747438_a_at) / RFU KRT8 (11758183_x_at) / Fold change /veh KRT8 (11758183_x_at) / RFU CNN1 (11734310_a_at) / Fold change /veh CNN1 (11734310_a_at) / RFU VPS37D (11726825_at) / Fold change /veh VPS37D (11726825_at) / RFU C10orf10 (11716522_x_at) / Fold change /veh C10orf10 (11716522_x_at) / RFU KIR2DL2 /// KIR2DL4 /// KIR2DL5A /// KIR2DL5B /// KIR2DS1 /// KIR2DS2 /// KIR2DS3 /// KIR2DS4 /// KIR3DL3 /// KIR3DL3 /// KIR3DS1 (11738374_at) / Fold change /veh KIR2DL2 /// KIR2DL4 /// KIR2DL5A /// KIR2DL5B /// KIR2DS1 /// KIR2DS2 /// KIR2DS3 /// KIR2DS4 /// KIR3DL3 /// KIR3DL3 /// KIR3DS1 (11738374_at) / RFU C1QL1 (11718748_at) / Fold change /veh C1QL1 (11718748_at) / RFU TMPRSS4 (11747572_a_at) / Fold change /veh TMPRSS4 (11747572_a_at) / RFU HAMP (11756126_x_at) / Fold change /veh HAMP (11756126_x_at) / RFU RNFT2 (11725882_a_at) / Fold change /veh RNFT2 (11725882_a_at) / RFU NR4A2 (11747474_a_at) / Fold change /veh NR4A2 (11747474_a_at) / RFU ABCC12 (11746883_a_at) / Fold change /veh ABCC12 (11746883_a_at) / RFU TMEM136 (11760407_x_at) / Fold change /veh TMEM136 (11760407_x_at) / RFU CLDN22 /// WWC2 (11732394_at) / Fold change /veh CLDN22 /// WWC2 (11732394_at) / RFU HLA-DPB1 (11760878_x_at) / Fold change /veh HLA-DPB1 (11760878_x_at) / RFU SPINT1 (11716480_a_at) / Fold change /veh SPINT1 (11716480_a_at) / RFU GAP43 (11754022_s_at) / Fold change /veh GAP43 (11754022_s_at) / RFU A4GNT (11735810_at) / Fold change /veh A4GNT (11735810_at) / RFU PRB3 (11715151_x_at) / Fold change /veh PRB3 (11715151_x_at) / RFU TUBB4B (11761932_at) / Fold change /veh TUBB4B (11761932_at) / RFU CAPN14 (11732068_a_at) / Fold change /veh CAPN14 (11732068_a_at) / RFU TMCC2 (11721928_a_at) / Fold change /veh TMCC2 (11721928_a_at) / RFU IRGQ (11745062_a_at) / Fold change /veh IRGQ (11745062_a_at) / RFU FAM174B (11720279_a_at) / Fold change /veh FAM174B (11720279_a_at) / RFU TMPRSS4 (11748680_a_at) / Fold change /veh TMPRSS4 (11748680_a_at) / RFU FAM212B (11763350_a_at) / Fold change /veh FAM212B (11763350_a_at) / RFU PLEKHG5 (11743358_a_at) / Fold change /veh PLEKHG5 (11743358_a_at) / RFU ZSCAN30 (11745921_a_at) / Fold change /veh ZSCAN30 (11745921_a_at) / RFU CMKLR1 (11741424_a_at) / Fold change /veh CMKLR1 (11741424_a_at) / RFU LOC101060620 /// MAPK8IP1 (11723275_at) / Fold change /veh LOC101060620 /// MAPK8IP1 (11723275_at) / RFU SPTSSB (11747773_x_at) / Fold change /veh SPTSSB (11747773_x_at) / RFU PRSS12 (11739890_at) / Fold change /veh PRSS12 (11739890_at) / RFU BIN1 (11741810_x_at) / Fold change /veh BIN1 (11741810_x_at) / RFU WNT11 (11732464_a_at) / Fold change /veh WNT11 (11732464_a_at) / RFU C10orf10 (11716521_a_at) / Fold change /veh C10orf10 (11716521_a_at) / RFU C5orf56 (11738089_at) / Fold change /veh C5orf56 (11738089_at) / RFU CYB561 (11721691_x_at) / Fold change /veh CYB561 (11721691_x_at) / RFU ANKRD19P (11752326_a_at) / Fold change /veh ANKRD19P (11752326_a_at) / RFU OR2T12 /// OR2T33 /// OR2T8 (11738714_s_at) / Fold change /veh OR2T12 /// OR2T33 /// OR2T8 (11738714_s_at) / RFU VCAN (11748164_a_at) / Fold change /veh VCAN (11748164_a_at) / RFU JSRP1 (11732532_at) / Fold change /veh JSRP1 (11732532_at) / RFU KRTAP10-11 (11738290_x_at) / Fold change /veh KRTAP10-11 (11738290_x_at) / RFU MYO3A (11730013_a_at) / Fold change /veh MYO3A (11730013_a_at) / RFU EBF3 (11725865_a_at) / Fold change /veh EBF3 (11725865_a_at) / RFU CAMK2N1 (11719241_x_at) / Fold change /veh CAMK2N1 (11719241_x_at) / RFU C5orf56 (11738088_a_at) / Fold change /veh C5orf56 (11738088_a_at) / RFU OLFML3 (11715873_a_at) / Fold change /veh OLFML3 (11715873_a_at) / RFU LOC100653217 /// NTM (11731650_a_at) / Fold change /veh LOC100653217 /// NTM (11731650_a_at) / RFU MAPK11 (11762145_a_at) / Fold change /veh MAPK11 (11762145_a_at) / RFU FIZ1 (11724087_x_at) / Fold change /veh FIZ1 (11724087_x_at) / RFU OASL (11726364_x_at) / Fold change /veh OASL (11726364_x_at) / RFU SOX15 (11748057_x_at) / Fold change /veh SOX15 (11748057_x_at) / RFU CD79A (11719716_a_at) / Fold change /veh CD79A (11719716_a_at) / RFU HIST1H1D (11736915_at) / Fold change /veh HIST1H1D (11736915_at) / RFU CASKIN2 (11723855_a_at) / Fold change /veh CASKIN2 (11723855_a_at) / RFU LOC730098 (11760151_x_at) / Fold change /veh LOC730098 (11760151_x_at) / RFU OR4N2 (11742367_at) / Fold change /veh OR4N2 (11742367_at) / RFU PRRT2 (11749266_a_at) / Fold change /veh PRRT2 (11749266_a_at) / RFU SNX32 (11753110_a_at) / Fold change /veh SNX32 (11753110_a_at) / RFU CDHR5 (11726645_a_at) / Fold change /veh CDHR5 (11726645_a_at) / RFU RCAN1 (11760418_a_at) / Fold change /veh RCAN1 (11760418_a_at) / RFU FAM167A (11723789_a_at) / Fold change /veh FAM167A (11723789_a_at) / RFU FAM26E (11764081_at) / Fold change /veh FAM26E (11764081_at) / RFU ISYNA1 (11749810_s_at) / Fold change /veh ISYNA1 (11749810_s_at) / RFU ACY1 (11761880_at) / Fold change /veh ACY1 (11761880_at) / RFU 11764098_at / Fold change /veh 11764098_at / RFU SAMD14 (11745864_x_at) / Fold change /veh SAMD14 (11745864_x_at) / RFU NPB (11741838_a_at) / Fold change /veh NPB (11741838_a_at) / RFU TMPRSS6 (11731388_a_at) / Fold change /veh TMPRSS6 (11731388_a_at) / RFU KRTAP10-2 (11738614_at) / Fold change /veh KRTAP10-2 (11738614_at) / RFU ARHGAP8 /// PRR5-ARHGAP8 (11727945_x_at) / Fold change /veh ARHGAP8 /// PRR5-ARHGAP8 (11727945_x_at) / RFU KRTAP5-7 /// NADSYN1 (11734609_at) / Fold change /veh KRTAP5-7 /// NADSYN1 (11734609_at) / RFU RASL12 (11751679_a_at) / Fold change /veh RASL12 (11751679_a_at) / RFU CDKN2B (11736163_a_at) / Fold change /veh CDKN2B (11736163_a_at) / RFU PRF1 (11729649_at) / Fold change /veh PRF1 (11729649_at) / RFU, ZNF638 /// ZNF638-IT1 / Fold change vs veh, ZNF638 /// ZNF638-IT1 / RFU, PANK3 / Fold change vs veh, PANK3 / RFU, SH3YL1 / Fold change vs veh, SH3YL1 / RFU, ZEB2 / Fold change vs veh, ZEB2 / RFU, NRIP1 / Fold change vs veh, NRIP1 / RFU, PTTG1IP / Fold change vs veh, PTTG1IP / RFU, CAPN2 / Fold change vs veh, CAPN2 / RFU, MED14 / Fold change vs veh, MED14 / RFU, SNORA58 / Fold change vs veh, SNORA58 / RFU, C1orf63 / Fold change vs veh, C1orf63 / RFU, LRRFIP1 / Fold change vs veh, LRRFIP1 / RFU, NDUFAF7 / Fold change vs veh, NDUFAF7 / RFU, SLC12A2 / Fold change vs veh, SLC12A2 / RFU, IBTK / Fold change vs veh, IBTK / RFU, ESF1 / Fold change vs veh, ESF1 / Fold change vs veh, TMEM50B / RFU, TAOK1 / Fold change vs veh, TAOK1 / RFU, ACBD3 / Fold change vs veh, ACBD3 / RFU, TMA16 / Fold change vs veh, TMA16 / RFU, RWDD3 / Fold change vs veh, RWDD3 / RFU, BCAT1 / Fold change vs veh, BCAT1 / RFU, EDEM3 / Fold change vs veh, EDEM3 / RFU, TMEM33 / Fold change vs veh, TMEM33 / RFU, WDR75 / Fold change vs veh, WDR75 / RFU, AHCTF1 / Fold change vs veh, AHCTF1 / RFU, TFRC / Fold change vs veh, TFRC / RFU, ZDHHC17 / Fold change vs veh, ZDHHC17 / RFU, NOM1 / Fold change vs veh, NOM1 / RFU, ARL8B / Fold change vs veh, ARL8B / RFU, ZBTB11 / Fold change vs veh, ZBTB11 / RFU, TAMM41 / Fold change vs veh, TAMM41 / RFU, KIAA1704 /// LOC100996395 / Fold change vs veh, KIAA1704 /// LOC100996395 / RFU, ING1 / Fold change vs veh, ING1 / RFU, TRMT61B / Fold change vs veh, TRMT61B / RFU, FUBP3 / Fold change vs veh, FUBP3 / RFU, TP53 / Fold change vs veh, TP53 / RFU, TNKS2 / Fold change vs veh, TNKS2 / RFU, ZFP14 / Fold change vs veh, ZFP14 / RFU, ACTR2 / Fold change vs veh, ACTR2 / RFU, PPP3R1 / Fold change vs veh, PPP3R1 / RFU, PIK3R1 / Fold change vs veh, PIK3R1 / RFU, HNRNPA1 / Fold change vs veh, HNRNPA1 / RFU, RNF170 / Fold change vs veh, RNF170 / RFU, ZNF28 / Fold change vs veh, ZNF28 / RFU, RNGTT / Fold change vs veh, RNGTT / RFU, OGT / Fold change vs veh, OGT / RFU, BRD1 / Fold change vs veh, BRD1 / RFU, MARS / Fold change vs veh, MARS / RFU, ZNF655 / Fold change vs veh, ZNF655 / RFU, FAHD1 / Fold change vs veh, FAHD1 / RFU, BDP1 / Fold change vs veh, BDP1 / RFU, LRRCC1 / Fold change vs veh, LRRCC1 / RFU, ARID1A / Fold change vs veh, ARID1A / RFU, ZNF146 / Fold change vs veh, ZNF146 / RFU, ZNF330 / Fold change vs veh, ZNF330 / RFU, GPN3 / Fold change vs veh, GPN3 / RFU, C9orf123 / Fold change vs veh, C9orf123 / RFU, N4BP2L2 / Fold change vs veh, N4BP2L2 / RFU, ARFIP1 / Fold change vs veh, ARFIP1 / RFU, FAM179B / Fold change vs veh, FAM179B / RFU, BCL10 / Fold change vs veh, BCL10 / RFU, UHRF1BP1L / Fold change vs veh, UHRF1BP1L / RFU, BET1 / Fold change vs veh, BET1 / RFU, CNOT2 / Fold change vs veh, CNOT2 / RFU, ZNF268 / Fold change vs veh, ZNF268 / Fold change vs veh, ZNF507 / RFU, DGCR2 / Fold change vs veh, DGCR2 / RFU, WDSUB1 / Fold change vs veh, WDSUB1 / Fold change vs veh, HSP90B1 /// MIR3652 / RFU, ADSS / Fold change vs veh, ADSS / RFU, GK / Fold change vs veh, GK / RFU, ZNF148 / Fold change vs veh, ZNF148 / RFU, TAF9 / Fold change vs veh, TAF9 / RFU, SLC1A5 / Fold change vs veh, SLC1A5 / RFU, SLMO2 / Fold change vs veh, SLMO2 / RFU, ABCC4 / Fold change vs veh, ABCC4 / RFU, LOC101060439 /// RAP1B / Fold change vs veh, LOC101060439 /// RAP1B / RFU, RFX7 / Fold change vs veh, RFX7 / RFU, GTPBP10 / Fold change vs veh, GTPBP10 / RFU, CNEP1R1 / Fold change vs veh, CNEP1R1 / RFU, BIVM-ERCC5 /// ERCC5 / Fold change vs veh, BIVM-ERCC5 /// ERCC5 / RFU, ILF3 / Fold change vs veh, ILF3 / RFU 11762660_at / Fold change /veh 11762660_at / RFU VCAN (11757783_s_at) / Fold change /veh VCAN (11757783_s_at) / RFU DDX43 (11728927_at) / Fold change /veh DDX43 (11728927_at) / RFU KRT8 (11758188_x_at) / Fold change /veh KRT8 (11758188_x_at) / RFU NKD1 (11759106_at) / Fold change /veh NKD1 (11759106_at) / RFU SRD5A1 (11742802_a_at) / Fold change /veh SRD5A1 (11742802_a_at) / RFU TPSAB1 /// TPSB2 (11721975_s_at) / Fold change /veh TPSAB1 /// TPSB2 (11721975_s_at) / RFU GSTM3 (11746129_a_at) / Fold change /veh GSTM3 (11746129_a_at) / RFU IL23R (11737362_x_at) / Fold change /veh IL23R (11737362_x_at) / RFU TMEM51 (11727254_a_at) / Fold change /veh TMEM51 (11727254_a_at) / RFU PIWIL2 (11732686_x_at) / Fold change /veh PIWIL2 (11732686_x_at) / RFU ORM1 (11744905_x_at) / Fold change /veh ORM1 (11744905_x_at) / RFU CCDC152 (11743942_at) / Fold change /veh CCDC152 (11743942_at) / RFU ECM1 (11717891_a_at) / Fold change /veh ECM1 (11717891_a_at) / RFU IL23R (11748794_a_at) / Fold change /veh IL23R (11748794_a_at) / RFU TNFAIP8L3 (11732012_x_at) / Fold change /veh TNFAIP8L3 (11732012_x_at) / RFU MBOAT4 (11741988_at) / Fold change /veh MBOAT4 (11741988_at) / RFU 11764193_at / Fold change /veh 11764193_at / RFU TMEM53 (11763286_at) / Fold change /veh TMEM53 (11763286_at) / RFU MAGEB2 (11727129_at) / Fold change /veh MAGEB2 (11727129_at) / RFU TMEM200A (11744735_a_at) / Fold change /veh TMEM200A (11744735_a_at) / RFU CCDC152 (11751479_a_at) / Fold change /veh CCDC152 (11751479_a_at) / RFU FAM211A (11726209_a_at) / Fold change /veh FAM211A (11726209_a_at) / RFU RGS16 (11746705_a_at) / Fold change /veh RGS16 (11746705_a_at) / RFU VCAN (11755009_s_at) / Fold change /veh VCAN (11755009_s_at) / RFU RHOB (11743442_s_at) / Fold change /veh RHOB (11743442_s_at) / RFU RGS16 (11720943_a_at) / Fold change /veh RGS16 (11720943_a_at) / RFU RGS16 (11720944_at) / Fold change /veh RGS16 (11720944_at) / RFU, VPS4B / Fold change vs veh, VPS4B / RFU, CREB1 / Fold change vs veh, CREB1 / RFU, DNAJC13 / Fold change vs veh, DNAJC13 / RFU, GNAQ / Fold change vs veh, GNAQ / RFU, CDK5R1 / Fold change vs veh, CDK5R1 / RFU, ZRANB3 / Fold change vs veh, ZRANB3 / RFU, CUL4A / Fold change vs veh, CUL4A / RFU, CCNY / Fold change vs veh, CCNY / RFU, UFL1 / Fold change vs veh, UFL1 / RFU, COG3 / Fold change vs veh, COG3 / RFU, DIAPH2 / Fold change vs veh, DIAPH2 / RFU, SKA2 / Fold change vs veh, SKA2 / RFU, AFF3 / Fold change vs veh, AFF3 / RFU, LMF1 / Fold change vs veh, LMF1 / RFU, IPO11 / Fold change vs veh, IPO11 / RFU, DFFB / Fold change vs veh, DFFB / RFU, FOXP1 / Fold change vs veh, FOXP1 / RFU, CARD8 / Fold change vs veh, CARD8 / RFU, STRN3 / Fold change vs veh, STRN3 / RFU, ADK / Fold change vs veh, ADK / RFU, RASSF2 / Fold change vs veh, RASSF2 / RFU, WIPF1 / Fold change vs veh, WIPF1 / RFU, LARP1B / Fold change vs veh, LARP1B / RFU, RASA1 / Fold change vs veh, RASA1 / RFU, RB1 / Fold change vs veh, RB1 / RFU, PPFIA1 / Fold change vs veh, PPFIA1 / RFU, MAT2A / Fold change vs veh, MAT2A / RFU, CCT5 / Fold change vs veh, CCT5 / RFU, WDR92 / Fold change vs veh, WDR92 / RFU, CUX1 / Fold change vs veh, CUX1 / RFU, TTC7A / Fold change vs veh, TTC7A / RFU, TMEM135 / Fold change vs veh, TMEM135 / RFU, DEPTOR / Fold change vs veh, DEPTOR / RFU, CPM / Fold change vs veh, CPM / RFU, DNAJB6 / Fold change vs veh, DNAJB6 / RFU, CACNA2D3 / Fold change vs veh, CACNA2D3 / RFU, DTX4 / Fold change vs veh, DTX4 / RFU, TFCP2 / Fold change vs veh, TFCP2 / RFU, GMCL1 /// GMCL1P1 / Fold change vs veh, GMCL1 /// GMCL1P1 / RFU, AEBP2 / Fold change vs veh, AEBP2 / RFU, SNHG1 /// SNORD22 /// SNORD25 /// SNORD26 /// SNORD27 /// SNORD28 /// SNORD29 /// SNORD31 / Fold change vs veh, SNHG1 /// SNORD22 /// SNORD25 /// SNORD26 /// SNORD27 /// SNORD28 /// SNORD29 /// SNORD31 / Fold change (Aza/veh), C12orf56 (ProbeSet 11735607_a_at) / Fold change (ACY-1035/veh), C12orf56 (ProbeSet 11735607_a_at) / Fold change (Aza/veh), FGFR1OP (ProbeSet 11751329_s_at) / Fold change (ACY-1035/veh), FGFR1OP (ProbeSet 11751329_s_at) / Fold change (Aza/veh), VPS36 (ProbeSet 11739960_a_at) / Fold change (ACY-1035/veh), VPS36 (ProbeSet 11739960_a_at) / RFU SYPL1 (11715823_x_at) / Fold change /veh SYPL1 (11715823_x_at) / RFU IGFBP7 (11715501_s_at) / Fold change /veh IGFBP7 (11715501_s_at) / RFU REEP3 (11722064_at) / Fold change /veh REEP3 (11722064_at) / RFU IGLL1 (11728026_x_at) / Fold change /veh IGLL1 (11728026_x_at): dose or concentration left out as unconfirmed
Conditions: MV-4-11 cells, 48 hours

`Nc1ncn([C@@H]2O[C@H](CO)[C@@H](O)[C@H]2O)c(=O)n1` [azacitidine] was tested, and the “Fold change /veh LRRC4B (11730491_at)” value was 1.07.
